Earlier results as cited in patent US20080139517A1, “Methods of treating age associated memory impairment (AAMI), mild cognitive impairment (MCI), and dementias with cell cycle inhibitors” (priority 2002, published 2008).

Legend:
[1] = test system: ERK-1 and ERK-2 (p44 and p42 MAPK); conditions: in response to hypoxia/reoxygenation injury
[2] = test system: leukemia cells; conditions: G1 phase
[3] = target: cdk4 (Homo sapiens, UniProt P11802)
[4] = test system: neuronal death
[5] = test system: moderate to severe AD; conditions: in vivo
[6] = test system: vascular dementia; conditions: in vivo
[7] = test system: p21 ras
[8] = test system: glioma cell lines
[9] = test system: human cancer cells; conditions: demonstrated in non-small-cell lung cancer cells
[10] = test system: cyclin D1
[11] = children
[12] = test system: cell cycle
[13] = test system: cdc 2
[14] = test system: PC12 cells; conditions: presence of nerve growth factor

Sequence of cdk4 (P11802 whole entry, species assumed): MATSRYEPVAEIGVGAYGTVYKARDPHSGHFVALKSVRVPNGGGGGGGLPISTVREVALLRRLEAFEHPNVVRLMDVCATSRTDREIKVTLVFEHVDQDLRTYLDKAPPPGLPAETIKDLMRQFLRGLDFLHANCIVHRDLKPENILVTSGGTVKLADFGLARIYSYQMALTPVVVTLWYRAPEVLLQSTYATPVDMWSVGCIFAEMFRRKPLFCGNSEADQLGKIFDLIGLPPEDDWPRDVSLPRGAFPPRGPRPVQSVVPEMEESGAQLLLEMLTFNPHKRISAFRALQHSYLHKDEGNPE
Sequence of cdk4 (P24385 whole entry partner, species assumed): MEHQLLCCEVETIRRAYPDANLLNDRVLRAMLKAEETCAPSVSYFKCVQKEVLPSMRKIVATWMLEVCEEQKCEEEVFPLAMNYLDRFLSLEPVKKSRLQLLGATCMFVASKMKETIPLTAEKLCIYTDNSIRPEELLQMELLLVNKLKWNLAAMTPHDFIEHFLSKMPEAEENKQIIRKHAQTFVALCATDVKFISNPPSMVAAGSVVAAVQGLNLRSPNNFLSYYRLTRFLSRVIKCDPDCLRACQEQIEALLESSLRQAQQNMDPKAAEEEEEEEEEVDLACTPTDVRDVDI

CC(=O)Oc1ccccc1C(=O)O [Aspirin, Acetylsalicylic acid]
ERK-1 and ERK-2 (p44 and p42 MAPK) activation [1]: inhibit

NS(=O)(=O)c1ccc(S(=O)(=O)Nc2cccc3c(Cl)c[nH]c23)cc1 [E7070, N-(3-chloro-7-indolyl)-1,4-benzenedisulfonamide]
cell cycle progression of leukemia cells [2]: block

O=C1c2ccccc2-[n+]2ccc3c([nH]c4ccccc43)c21 [Fascaplysin]
cdk4 inhibition [3]: specifically inhibit

C[C@]12N[C@H](Cc3ccccc31)c1ccccc12 [MK801]
excitotoxic neuronal death [4]: blocks

CC12CC3CC(C)(C1)CC(N)(C3)C2 [Memantine]
treatment of moderate to severe AD [5]: useful | treatment of vascular dementia [6]: useful

Cn1cncc1[C@@](N)(c1ccc(Cl)cc1)c1ccc2c(c1)c(-c1cccc(Cl)c1)cc(=O)n2C [R115777]
p21 ras activation [7]: prevent

NC(=O)N1CCC(CC(=O)N2CCC([C@H]3c4ncc(Br)cc4CCc4cc(Cl)cc(Br)c43)CC2)CC1 [SCH66336]
p21 ras activation [7]: prevent

CCCC(CCC)C(=O)O [Valproate, valproic acid]
cell cycle arrest in glioma cell lines [8]: induce cell cycle arrest

C[C@@H]1C[C@H]1[C@H](C)C[C@@H](O)[C@@]1([C@H]2CC[C@H]3[C@@H]4CC[C@H]5CC(=O)CC[C@]5(C)[C@H]4C[C@@H](O)[C@]23C)CO1 [YTA0040, Aragusterol A]
cell cycle arrest of human cancer cells [9]: arrested human cancer cells cycle in the G1 phase

CN1CC[C@H](c2c(O)cc(O)c3c(=O)cc(-c4ccccc4Cl)oc23)[C@H](O)C1 [flavopiridol]
excitotoxic neuronal death [4]: blocks

C=C(C)[C@H]1CN[C@H](C(=O)O)[C@H]1CC(=O)O [kainic acid]
cyclin D1 expression [10]: upregulates

CN(Cc1cnc2nc(N)nc(N)c2n1)c1ccc(C(=O)N[C@@H](CCC(=O)O)C(=O)O)cc1 [methotrexate]
cognitive impairment associated with treatment [11]: learning disabilities

CC[C@H](CO)Nc1nc(NCc2ccccc2)c2ncn(C(C)C)c2n1 [roscovitine]
cell cycle arrest [12]: cell cycle arrest at the G1 phase

CCCC(=O)[O-].[Na+] [sodium butyrate]
expression of late G1 phase genes such as cdc 2 [13]: inhibits

C=CC[C@@H]1/C=C(\C)C[C@H](C)C[C@H](OC)[C@H]2O[C@@](O)(C(=O)C(=O)N3CCCC[C@H]3C(=O)O[C@H](/C(C)=C/[C@@H]3CC[C@@H](O)[C@H](OC)C3)[C@H](C)[C@@H](O)CC1=O)[C@H](C)C[C@@H]2OC [tacrolimus]
neurite outgrowth [14]: little effect
